Reference: US11117875B2, “Crystalline forms, preparation methods and pharmaceutical compositions of ozanimod” (Hangzhou SoliPharma Co., Ltd., priority 2016, dated 2021)
Like-named read-outs stand apart in the source and are kept apart here.

Legend:
Format in all cases: physicochemical
[1] = Form stability test at 50° C.; settings: for Crystalline form, storage time 0 day / Form stability after having been placed at 50° C. for 1 day: 50° C.; for Crystalline form, storage time 0 day: 0 day (start); for Crystalline form, storage time 5 days: placed at 50° C.
Protocol: The known ozanimod solid of Preparation Example 1 and ozanimod Form 1 of Example 1 were tested in form stability test. The procedures are detailed as follows: placed about 20 mg of the above two samples respectively at 50° C., and studied their form stability.

[2] = Storage at room temperature in desiccators with relative humidity ranging from 10% to 90%; settings: relative humidity 10% to 90%
[3] = Form stability in water (stirred in water)
Protocol: The form stability in water of the known ozanimod of Preparation Example 1 and ozanimod Form 2 of Example 10 were compared. The procedures are detailed as follows: took about 20 mg of the above two samples respectively, stirred in water, and studied the form stability.

[4] = Form stability under 97% relative humidity; settings: for Crystalline form, storage time 5 days: 97% RH environment; for Crystalline form, storage time 0 day: 0 day (start)
Protocol: The known ozanimod of Preparation Example 1 and ozanimod Form 3 of Example 19 were compared in their form stability under 97% relative humidity. The procedures are detailed as follows: placed about 20 mg of the above two samples respectively at 97% RH environment, and studied their crystalline form stability.

[5] = listed as known amorphous form of ozanimod

Compound | Crystalline form, storage time 0 day [1] | Form stability after having been placed at 50° C. for 1 day [1] | Crystalline form, storage time 5 days [1] | Crystalline form, storage time 5 days ([1]; listed as ozanimod Form 1) | Appearance, XRPD and melting point after 4 months storage [2] | Crystalline form after stirred in water for 3 days [3] | Crystalline form after stirred in water for 3 days ([3]; listed as Form 2) | Crystalline form after stirred in water for 3 days ([3]; listed as ozanimod Form 2) | Crystalline form, storage time 5 days [4] | Crystalline form, storage time 0 day ([4]; 97% RH) | Form stability after storage at 97% RH for 10 days ([4]; 97% RH, 10 days) | Form stability at room temperature and 97% relative humidity for 3 days [4] | Form stability after having been placed at 50° C. for 1 day [1, 5] | Crystalline form after stirred in water for 3 days [3, 5] | Form stability at room temperature and 97% relative humidity for 3 days [4, 5]
CC(C)Oc1ccc(-c2nc(-c3cccc4c3CC[C@@H]4NCCO)no2)cc1C#N [Ozanimod Form 1, 5-[3-[(1S)-2,3-dihydro-1-(2-hydroxyethylamino)-1H-inden-4-yl]-1,2,4-oxadiazol-5-yl]-2-isopropoxybenzonitrile] | Form 1 | remained unchanged | Remained Form 1 | more stable | remained unchanged |  |  |  |  |  |  |  |  |  | 
CC(C)Oc1ccc(-c2nc(-c3cccc4c3CC[C@@H]4NCCO)no2)cc1C#N [Ozanimod Form 2, 5-[3-[(1S)-2,3-dihydro-1-(2-hydroxyethylamino)-1H-inden-4-yl]-1,2,4-oxadiazol-5-yl]-2-isopropoxybenzonitrile] |  |  |  |  | remained unchanged | Remained Form 2 | remained unchanged | remained unchanged |  |  |  |  |  |  | 
CC(C)Oc1ccc(-c2nc(-c3cccc4c3CC[C@@H]4NCCO)no2)cc1C#N [Ozanimod Form 3, 5-[3-[(1S)-2,3-dihydro-1-(2-hydroxyethylamino)-1H-inden-4-yl]-1,2,4-oxadiazol-5-yl]-2-isopropoxybenzonitrile] |  |  |  |  |  |  |  |  | Remained Form 3 | Form 3 | remained unchanged | remained unchanged |  |  | 
CC(C)Oc1ccc(-c2nc(-c3cccc4c3CC[C@@H]4NCCO)no2)cc1C#N [The known ozanimod, 5-[3-[(1S)-2,3-dihydro-1-(2-hydroxyethylamino)-1H-inden-4-yl]-1,2,4-oxadiazol-5-yl]-2-isopropoxybenzonitrile, reference compound] | Amorphous |  | Weak diffraction |  |  | Transformed to Form 2 |  |  | Weak diffraction | Amorphous |  |  | showed diffraction peaks | turned to Form 2 | turned to Form 3
